Results: PubChem BioAssay AID618 (Sanford-Burnham Center for Chemical Genomics, 2007)
Activity calls are given as the source filed them. How the calls were made is not given here.

What follows are compounds tested on MT1-MMP promoter luciferase reporter cells, luminescence (assay: MT1-MMP gene expression reporter suppression – cell-based, luciferase reporter, luminescence (AID 618);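 further: actives suppress MT1-MMP promoter-driven transcription so potencies describe inhibitors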).
`Nc1nc(Nc2ccc(Cl)cc2)nc2ccccc12` was tested, and the EC50 was 2.13 µM.
Work on `Cc1ccc2nc(-c3cccc(N)c3)[nH]c2c1` yielded an EC50 of 2.8 µM.
Work on `CCCCN(C)C(=O)c1cc2cc3ccc(OC)cc3nc2s1` yielded an EC50 of 3.61 µM.
For `Nc1ccc2oc(-c3ccc4nc[nH]c4c3)nc2c1`, the EC50 was 4.29 µM.
`COc1ccc(-c2nc3ccccc3[nH]2)cc1` was tested, and the EC50 was 2.72 µM.
`COc1ccc(O)c(C(=O)CC(=O)c2ccc(F)cc2)c1` gave an EC50 of 0.57 µM.
For `Cc1cccc(-n2ncc3c(N4CCCC4)ncnc32)c1`, the EC50 was 7.6 µM.
For `CC(C)c1ccc2oc(-c3ccc(N)cc3)nc2c1`, the EC50 was 1.66 µM.
In the case of `O=c1c(Cl)c(N2CCCCC2)cnn1-c1nc2ccccc2[nH]1`, the EC50 is reported as 0.59 µM.
`COc1ccc(C(=O)Nc2ccc3c(c2)OCCO3)cc1` gave an EC50 of 2.98 µM.
Compound `CCc1ccc(NC(=O)c2noc3c2CCC3)cc1` has an EC50 of 4 µM.
Work on `c1ccc(C2=NNC(=NC3CC3)SC2)cc1` yielded an EC50 of 1.7 µM.
`Brc1ccc(-c2nc(-c3ccccn3)no2)o1` was tested, and the EC50 was 2.14 µM.
`CCCCCCOc1ccc(CN2CCN(CCO)CC2)cc1` showed an EC50 of 12.1 µM.
`Clc1ccc(-c2nnc(N3CCCC3)nn2)cc1` gave an EC50 of 6.38 µM.
With `CC(C)CNC(=O)c1coc(=O)c(Br)c1` the EC50 was 18.5 µM.
Compound `CCOc1ccc(-c2cc(CCCC(=O)NCCCOC)no2)cc1` has an EC50 of 8.32 µM.
`CC1CCN(c2nc3ccc(C(=O)O)cc3s2)CC1` showed an EC50 of 0.35 µM.
`Cc1ccc(C(=O)N/N=C/c2ccc([N+](=O)[O-])s2)cc1` gave an EC50 of 0.3 µM.
Compound `CCOc1ccc(C(=O)NCCc2ccccc2)cc1` has an EC50 of 2.56 µM.
Compound `O=c1c2sc(-c3ccccc3)cc2nc2n1CCC2` has an EC50 of 4.05 µM.
`O=C(Nc1ccc(CN2CCOCC2)cc1)c1cc2ccccn2n1` showed an EC50 of 3.35 µM.
With `NC(=O)c1c(NC(=O)c2cc3ccccc3o2)sc2c1CCC2` the EC50 was 6.54 µM.
For `Brc1ccccc1-c1nc(-c2ccccc2)no1`, the EC50 was 6.92 µM.
With `CN(C)CCCNS(=O)(=O)c1ccc(N2CCC(c3ccc(Cl)cc3)=N2)cc1` the EC50 was 12 µM.
For `CC(C)C(=O)NC(c1ccco1)c1ccc2cccnc2c1O` (configuration not stated), the EC50 was 27.6 µM.
Compound `CCOC(=O)/C(=C\c1ccccc1)C(=O)c1cc(C(C)=O)c(Nc2ccccc2)s1` has an EC50 of 14.4 µM.
Compound `N#Cc1cc2c(nc1SCC(=O)Nc1nccs1)CCCCC2` has an EC50 of 7.77 µM.
Compound `O=S(=O)(c1ccc(Cl)cc1)c1snnc1-c1ccccc1` has an EC50 of 13.2 µM.
Work on `Clc1ccccc1OCc1nc(-c2ccccn2)no1` yielded an EC50 of 6.65 µM.
`CC(C)(C)c1ccc(C(=O)N2CCCCCC2=O)cc1` gave an EC50 of 12.8 µM.
Compound `CCN1C=CC(=C2C(=O)c3ccccc3C2=O)C=C1` has an EC50 of 0.2 µM.
`CC(C)Nc1ncnc2c1cnn2-c1ccc(Cl)cc1` showed an EC50 of 3.85 µM.
For `CCc1ccc(-c2cc(C(=O)Nn3cnnc3)c3ccccc3n2)cc1`, the EC50 was 2.12 µM.
`O=C1C(Cl)=C(N2CCCCC2)C(=O)C(Cl)=C1c1cnc(N2CCCCC2)s1` was tested, and the EC50 was 4.53 µM.
`O=C1C(c2ccnc3ccccc23)=C(O)c2ccccc21` was tested, and the EC50 was > 50 µM (inactive).
With `COc1ccc(N=CC2=C(O)c3ccccc3C2=O)c(OC)c1` the EC50 was 0.79 µM.
For `O=C(N/N=C/c1ccc([N+](=O)[O-])s1)c1ccccc1Br`, the EC50 was 2.8 µM.
`CC(C)c1ccc(-c2nnn(CCC(=O)O)n2)cc1` gave an EC50 of 1.04 µM.
`CCOC(=O)c1sc2nc3c(cc2c1N)COC(C(C)C)C3` (configuration not stated) gave an EC50 of 1.62 µM.
`O=C1/C(=C/Nc2ccc3c(c2)OCO3)CCc2ccccc21` showed an EC50 of 0.81 µM.
`Cc1cc(NCCCn2ccnc2)n2ncc(-c3ccc(Cl)cc3)c2n1` gave an EC50 of 8.72 µM.
In the case of `O=C(O)CCSc1nc2ccccc2s1`, the EC50 is reported as 15.4 µM.
With `CCn1c(SCC(=O)Nc2ccccc2C)nnc1-c1ccccc1O` the EC50 was > 50 µM (inactive).
In the case of `Cc1oc(-c2ccc3c(c2)OCCO3)cc1C(=O)O`, the EC50 is reported as 2.94 µM.
In the case of `CC(C)(C)C(=O)N1CCc2cc(-c3csc(N)n3)ccc21`, the EC50 is reported as 1.36 µM.
For `O=C(/C=C\Nc1ccccn1)c1ccc(Cl)cc1`, the EC50 was 1.18 µM.
With `CC(C)(C)c1ccc(C(=O)Nc2ccc(CC(=O)O)cc2)o1` the EC50 was 0.23 µM.
With `CCOc1ccc(NC(=O)c2cnsn2)cc1` the EC50 was 8.78 µM.
Work on `CC(=O)Nc1ccc2oc(-c3cc(F)c(F)cc3Cl)nc2c1` yielded an EC50 of 3.48 µM.
`COc1cccc(C(=O)/C=C/Nc2cccc(O)c2)c1` was tested, and the EC50 was 0.18 µM.
Work on `O=c1c2ccccc2nnn1CSc1nnc2sc3ccccc3n12` yielded an EC50 of 8.02 µM.
